Experimental data as given in patent publication US10996170B2, “Device and method for imaging shortwave infrared fluorescence” (Massachusetts Institute of Technology, priority 2016, dated 2021).

Tested on: liver
Experiment: SWIR imaging of hepatobiliary clearance in vivo
Details: 1.7 mg/kg intravenously; mouse
Description: When injected into a living system, indocyanine green is metabolized by the liver and excreted by the liver and bile ducts by a process called hepatobiliary clearance. This process was observed, noninvasively, by injecting a solution of indocyanine green intravenously into a mouse and using an SWIR imaging system as described herein to observe the fluorescence of indocyanine green. The dye was injected at a dose of 1.7 mg/kg which is below the maximum recommended dose of indocyanine green in humans. […] Despite the fact that 1500 nm is far from the peak emission of indocyanine green, there is sufficient emission intensity from the tail of the emission peak in this wavelength region to obtain a SWIR fluorescence image. Separately, hepatobiliary excretion of ICG into the small intestine in a mouse was also imaged using a near video rate imaging of 19.7 frames per second using a 1200 nm long-pass filter, which enabled capturing the peristaltic movements of the small intestine. Although the frame rate was slower, 2.0 frames per second, it was possible to image the ICG clearance using a 1500 nm long-pass filter, capturing wavelengths between roughly 1500 and 1620 nm.

CC1(C)C(/C=C/C=C/C=C/C=C2\N(CCCCS(=O)(=O)O)c3ccc4ccccc4c3C2(C)C)=[N+](CCCCS(=O)(=O)[O-])c2ccc3ccccc3c21 [ICG, indocyanine green]
tissue distribution observed by SWIR fluorescence: Accumulation of indocyanine green in the liver
